Values of other authors, collected in patent publication US20040214804A1, “Combination of an aldosterone receptor antagonist and an anti-obesity agent” (Pharmacia Corporation, priority 2003, published 2004).

Key:
[1] = tested on: severe heart failure patients; conditions: left ventricular ejection fraction no more than 35%, on standard therapy (ACE inhibitor, loop diuretic, in some cases digoxin)
[2] = tested on: dietary-induced obesity in dogs; conditions: during development of dietary-induced obesity

Row | SMILES | incidence of hospitalization relative to placebo-treated subjects [1] | mortality relative to placebo-treated subjects [1] | glomerular hyperfiltration associated with chronic dietary-induced obesity [2] | hypertension associated with chronic dietary-induced obesity [2] | sodium retention associated with chronic dietary-induced obesity [2]
1 | CC(=O)S[C@@H]1CC2=CC(=O)CCC2(C)C2CC[C@]3(C)[C@@H](CC[C@@]34CCC(=O)O4)C21 (stereo partly drawn) [spironolactone, 17-hydroxy-7α-mercapto-3-oxo-17α-pregn-4-ene-21-carboxylic acid γ-lactone acetate] | statistically significant reduction | statistically significant reduction | – | – | –
2 | COC(=O)[C@@H]1CC2=CC(=O)CC[C@]2(C)[C@@]23O[C@@H]2C[C@@]2(C)[C@@H](CC[C@@]24CCC(=O)O4)[C@H]13 [Eplerenone, Pregn-4-ene-7,21-dicarboxylic acid, 9,11-epoxy-17-hydroxy-3-oxo-,γ-lactone, methyl ester, (7α,11α,17β)-] | – | – | markedly attenuated | markedly attenuated | markedly attenuated
